In patent US12396461B2, “Functional peptides having antimicrobial activity against phytopathogenic microorganisms” (TOYOTA JIDOSHA KABUSHIKI KAISHA, priority 2019, dated 2025):
Where “and” joins values, the source holds several entries; their conditions need not be identical. Equal values may be shown once. Read-outs that look alike come from different tables or passages of the source.

Experiments:
Assay type in all cases: cell-based
[1] = tested on: Fusarium oxysporum; parameters: key to Plate antimicrobial activity test Fusarium oxysporum, level: a case where hyphae extended to the entire well and no antimicrobial activity was found is defined as “level 0,”; a case where hyphae extended to less than a half of the well and thus the peptide inhibited the growth of the hyphae is defined as “level 1,”; a case where ungerminated spores were present and the peptide partially inhibited the germination is defined as “level 2,”; a case where all spores were ungerminated and the peptide completely inhibited the germination is defined as “level 3.”
[2] = tested on: Colletotrichum destructivum; parameters: key to Plate antimicrobial activity test Colletotrichum destructivum, level: a case where hyphae extended to the entire well and no antimicrobial activity was found is defined as “level 0,”; a case where hyphae extended to less than a half of the well and thus the peptide inhibited the growth of the hyphae is defined as “level 1,”; a case where ungerminated spores were present and the peptide partially inhibited the germination is defined as “level 2,”; a case where all spores were ungerminated and the peptide completely inhibited the germination is defined as “level 3.”; details: 25° C. for 1 day or 2 days, microscopic observation
[3] = tested on: Pyricularia oryzae; parameters: key to Plate antimicrobial activity test Pyricularia oryzae, level: a case where hyphae extended to the entire well and no antimicrobial activity was found is defined as “level 0,”; a case where hyphae extended to less than a half of the well and thus the peptide inhibited the growth of the hyphae is defined as “level 1,”; a case where ungerminated spores were present and the peptide partially inhibited the germination is defined as “level 2,”; a case where all spores were ungerminated and the peptide completely inhibited the germination is defined as “level 3.”; details: 25° C. for 1 day or 2 days, microscopic observation
[4] = tested on: Botrytis cinerea; parameters: key to Plate antimicrobial activity test Botrytis cinerea, level: a case where hyphae extended to the entire well and no antimicrobial activity was found is defined as “level 0,”; a case where hyphae extended to less than a half of the well and thus the peptide inhibited the growth of the hyphae is defined as “level 1,”; a case where ungerminated spores were present and the peptide partially inhibited the germination is defined as “level 2,”; a case where all spores were ungerminated and the peptide completely inhibited the germination is defined as “level 3.”; details: 25° C. for 1 day or 2 days, microscopic observation
[5] = tested on: Colletotrichum orbiculare; parameters: key to Plate antimicrobial activity test Colletotrichum orbiculare, level: a case where hyphae extended to the entire well and no antimicrobial activity was found is defined as “level 0,”; a case where hyphae extended to less than a half of the well and thus the peptide inhibited the growth of the hyphae is defined as “level 1,”; a case where ungerminated spores were present and the peptide partially inhibited the germination is defined as “level 2,”; a case where all spores were ungerminated and the peptide completely inhibited the germination is defined as “level 3.”; details: 25° C. for 1 day or 2 days, microscopic observation

NKKVAKMM (listed as Solanum lycopersicum) [TsORF6-1-8aa-13, partial peptide of TsORF6-1, 8 amino acid residues]
0: Plate antimicrobial activity test Fusarium oxysporum, level [1] | Plate antimicrobial activity test Colletotrichum destructivum, level ([2]; peptide 1 μM) | Plate antimicrobial activity test Colletotrichum destructivum, level ([2]; peptide 10 μM) | Plate antimicrobial activity test Colletotrichum destructivum, level ([2]; peptide 100 μM) | Plate antimicrobial activity test Pyricularia oryzae, level ([3]; peptide 1 μM) | Plate antimicrobial activity test Pyricularia oryzae, level ([3]; peptide 10 μM) | Plate antimicrobial activity test Pyricularia oryzae, level ([3]; peptide 100 μM) | Plate antimicrobial activity test Botrytis cinerea, level ([4]; peptide 1 μM) | Plate antimicrobial activity test Botrytis cinerea, level ([4]; peptide 10 μM) | Plate antimicrobial activity test Botrytis cinerea, level ([4]; peptide 100 μM) | Plate antimicrobial activity test Colletotrichum orbiculare, level ([5]; peptide 1 μM) | Plate antimicrobial activity test Colletotrichum orbiculare, level ([5]; peptide 10 μM) | Plate antimicrobial activity test Colletotrichum orbiculare, level ([5]; peptide 100 μM)

IVVKT (listed as Solanum lycopersicum) [TsORF6-1-5aa-5, partial peptide of TsORF6-1, 5 amino acid residues]
0: Plate antimicrobial activity test Fusarium oxysporum, level [1] | Plate antimicrobial activity test Colletotrichum destructivum, level ([2]; peptide 1 μM) | Plate antimicrobial activity test Colletotrichum destructivum, level ([2]; peptide 10 μM) | Plate antimicrobial activity test Colletotrichum destructivum, level ([2]; peptide 100 μM) | Plate antimicrobial activity test Pyricularia oryzae, level ([3]; peptide 1 μM) | Plate antimicrobial activity test Pyricularia oryzae, level ([3]; peptide 10 μM) | Plate antimicrobial activity test Pyricularia oryzae, level ([3]; peptide 100 μM) | Plate antimicrobial activity test Botrytis cinerea, level ([4]; peptide 1 μM) | Plate antimicrobial activity test Botrytis cinerea, level ([4]; peptide 10 μM) | Plate antimicrobial activity test Botrytis cinerea, level ([4]; peptide 100 μM) | Plate antimicrobial activity test Colletotrichum orbiculare, level ([5]; peptide 1 μM) | Plate antimicrobial activity test Colletotrichum orbiculare, level ([5]; peptide 10 μM) | Plate antimicrobial activity test Colletotrichum orbiculare, level ([5]; peptide 100 μM)

VKNKKVAK (listed as Solanum lycopersicum) [TsORF6-1-8aa-11, partial peptide of TsORF6-1, 8 amino acid residues]
0: Plate antimicrobial activity test Fusarium oxysporum, level [1] | Plate antimicrobial activity test Colletotrichum destructivum, level ([2]; peptide 1 μM) | Plate antimicrobial activity test Colletotrichum destructivum, level ([2]; peptide 10 μM) | Plate antimicrobial activity test Colletotrichum destructivum, level ([2]; peptide 100 μM) | Plate antimicrobial activity test Pyricularia oryzae, level ([3]; peptide 1 μM) | Plate antimicrobial activity test Pyricularia oryzae, level ([3]; peptide 10 μM) | Plate antimicrobial activity test Pyricularia oryzae, level ([3]; peptide 100 μM) | Plate antimicrobial activity test Botrytis cinerea, level ([4]; peptide 1 μM) | Plate antimicrobial activity test Botrytis cinerea, level ([4]; peptide 10 μM) | Plate antimicrobial activity test Botrytis cinerea, level ([4]; peptide 100 μM) | Plate antimicrobial activity test Colletotrichum orbiculare, level ([5]; peptide 1 μM) | Plate antimicrobial activity test Colletotrichum orbiculare, level ([5]; peptide 10 μM) | Plate antimicrobial activity test Colletotrichum orbiculare, level ([5]; peptide 100 μM)

KVKNKKVA (listed as Solanum lycopersicum) [TsORF6-1-8aa-10, partial peptide of TsORF6-1, 8 amino acid residues]
0: Plate antimicrobial activity test Fusarium oxysporum, level [1] | Plate antimicrobial activity test Colletotrichum destructivum, level ([2]; peptide 1 μM) | Plate antimicrobial activity test Colletotrichum destructivum, level ([2]; peptide 10 μM) | Plate antimicrobial activity test Colletotrichum destructivum, level ([2]; peptide 100 μM) | Plate antimicrobial activity test Pyricularia oryzae, level ([3]; peptide 1 μM) | Plate antimicrobial activity test Pyricularia oryzae, level ([3]; peptide 10 μM) | Plate antimicrobial activity test Pyricularia oryzae, level ([3]; peptide 100 μM) | Plate antimicrobial activity test Botrytis cinerea, level ([4]; peptide 1 μM) | Plate antimicrobial activity test Botrytis cinerea, level ([4]; peptide 10 μM) | Plate antimicrobial activity test Botrytis cinerea, level ([4]; peptide 100 μM) | Plate antimicrobial activity test Colletotrichum orbiculare, level ([5]; peptide 1 μM) | Plate antimicrobial activity test Colletotrichum orbiculare, level ([5]; peptide 10 μM) | Plate antimicrobial activity test Colletotrichum orbiculare, level ([5]; peptide 100 μM)

VKTKVKNK (listed as Solanum lycopersicum) [TsORF6-1-8aa-7, partial peptide of TsORF6-1, 8 amino acid residues]
0: Plate antimicrobial activity test Fusarium oxysporum, level [1] | Plate antimicrobial activity test Colletotrichum destructivum, level ([2]; peptide 1 μM) | Plate antimicrobial activity test Colletotrichum destructivum, level ([2]; peptide 10 μM) | Plate antimicrobial activity test Colletotrichum destructivum, level ([2]; peptide 100 μM) | Plate antimicrobial activity test Pyricularia oryzae, level ([3]; peptide 1 μM) | Plate antimicrobial activity test Pyricularia oryzae, level ([3]; peptide 10 μM) | Plate antimicrobial activity test Pyricularia oryzae, level ([3]; peptide 100 μM) | Plate antimicrobial activity test Botrytis cinerea, level ([4]; peptide 1 μM) | Plate antimicrobial activity test Botrytis cinerea, level ([4]; peptide 10 μM) | Plate antimicrobial activity test Botrytis cinerea, level ([4]; peptide 100 μM) | Plate antimicrobial activity test Colletotrichum orbiculare, level ([5]; peptide 1 μM) | Plate antimicrobial activity test Colletotrichum orbiculare, level ([5]; peptide 10 μM) | Plate antimicrobial activity test Colletotrichum orbiculare, level ([5]; peptide 100 μM)

TKVKNKKV (listed as Solanum lycopersicum) [TsORF6-1-8aa-9, partial peptide of TsORF6-1, 8 amino acid residues]
0: Plate antimicrobial activity test Fusarium oxysporum, level [1] | Plate antimicrobial activity test Colletotrichum destructivum, level ([2]; peptide 1 μM) | Plate antimicrobial activity test Colletotrichum destructivum, level ([2]; peptide 10 μM) | Plate antimicrobial activity test Colletotrichum destructivum, level ([2]; peptide 100 μM) | Plate antimicrobial activity test Pyricularia oryzae, level ([3]; peptide 1 μM) | Plate antimicrobial activity test Pyricularia oryzae, level ([3]; peptide 10 μM) | Plate antimicrobial activity test Pyricularia oryzae, level ([3]; peptide 100 μM) | Plate antimicrobial activity test Botrytis cinerea, level ([4]; peptide 1 μM) | Plate antimicrobial activity test Botrytis cinerea, level ([4]; peptide 10 μM) | Plate antimicrobial activity test Botrytis cinerea, level ([4]; peptide 100 μM) | Plate antimicrobial activity test Colletotrichum orbiculare, level ([5]; peptide 1 μM) | Plate antimicrobial activity test Colletotrichum orbiculare, level ([5]; peptide 10 μM) | Plate antimicrobial activity test Colletotrichum orbiculare, level ([5]; peptide 100 μM)

KNKKVAKM (listed as Solanum lycopersicum) [TsORF6-1-8aa-12, partial peptide of TsORF6-1, 8 amino acid residues]
0: Plate antimicrobial activity test Fusarium oxysporum, level [1] | Plate antimicrobial activity test Colletotrichum destructivum, level ([2]; peptide 1 μM) | Plate antimicrobial activity test Colletotrichum destructivum, level ([2]; peptide 10 μM) | Plate antimicrobial activity test Colletotrichum destructivum, level ([2]; peptide 100 μM) | Plate antimicrobial activity test Pyricularia oryzae, level ([3]; peptide 1 μM) | Plate antimicrobial activity test Pyricularia oryzae, level ([3]; peptide 10 μM) | Plate antimicrobial activity test Pyricularia oryzae, level ([3]; peptide 100 μM) | Plate antimicrobial activity test Botrytis cinerea, level ([4]; peptide 1 μM) | Plate antimicrobial activity test Botrytis cinerea, level ([4]; peptide 10 μM) | Plate antimicrobial activity test Botrytis cinerea, level ([4]; peptide 100 μM) | Plate antimicrobial activity test Colletotrichum orbiculare, level ([5]; peptide 1 μM) | Plate antimicrobial activity test Colletotrichum orbiculare, level ([5]; peptide 10 μM) | Plate antimicrobial activity test Colletotrichum orbiculare, level ([5]; peptide 100 μM)

IVVKTKVK (listed as Solanum lycopersicum) [TsORF6-1-8aa-5, partial peptide of TsORF6-1, 8 amino acid residues]
0: Plate antimicrobial activity test Fusarium oxysporum, level [1] | Plate antimicrobial activity test Colletotrichum destructivum, level ([2]; peptide 1 μM) | Plate antimicrobial activity test Colletotrichum destructivum, level ([2]; peptide 10 μM) | Plate antimicrobial activity test Colletotrichum destructivum, level ([2]; peptide 100 μM) | Plate antimicrobial activity test Pyricularia oryzae, level ([3]; peptide 1 μM) | Plate antimicrobial activity test Pyricularia oryzae, level ([3]; peptide 10 μM) | Plate antimicrobial activity test Pyricularia oryzae, level ([3]; peptide 100 μM) | Plate antimicrobial activity test Botrytis cinerea, level ([4]; peptide 1 μM) | Plate antimicrobial activity test Botrytis cinerea, level ([4]; peptide 10 μM) | Plate antimicrobial activity test Botrytis cinerea, level ([4]; peptide 100 μM) | Plate antimicrobial activity test Colletotrichum orbiculare, level ([5]; peptide 1 μM) | Plate antimicrobial activity test Colletotrichum orbiculare, level ([5]; peptide 10 μM) | Plate antimicrobial activity test Colletotrichum orbiculare, level ([5]; peptide 100 μM)

KMMVKEDEKNKRVITMKEELMV (listed as Solanum lycopersicum) [TsORF6-2, chemically synthesized region of TsORF6]
2: Plate antimicrobial activity test Botrytis cinerea, level ([4]; peptide 100 μM)
0: Plate antimicrobial activity test Colletotrichum destructivum, level ([2]; peptide 1 μM) | Plate antimicrobial activity test Colletotrichum destructivum, level ([2]; peptide 10 μM) | Plate antimicrobial activity test Colletotrichum destructivum, level ([2]; peptide 100 μM) | Plate antimicrobial activity test Pyricularia oryzae, level ([3]; peptide 1 μM) | Plate antimicrobial activity test Pyricularia oryzae, level ([3]; peptide 10 μM) | Plate antimicrobial activity test Pyricularia oryzae, level ([3]; peptide 100 μM) | Plate antimicrobial activity test Botrytis cinerea, level ([4]; peptide 1 μM) | Plate antimicrobial activity test Botrytis cinerea, level ([4]; peptide 10 μM) | Plate antimicrobial activity test Colletotrichum orbiculare, level ([5]; peptide 1 μM) | Plate antimicrobial activity test Colletotrichum orbiculare, level ([5]; peptide 10 μM) | Plate antimicrobial activity test Colletotrichum orbiculare, level ([5]; peptide 100 μM)
1 and 0: Plate antimicrobial activity test Fusarium oxysporum, level [1]

VVKTK (listed as Solanum lycopersicum) [TsORF6-1-5aa-6, partial peptide of TsORF6-1, 5 amino acid residues]
0: Plate antimicrobial activity test Fusarium oxysporum, level [1] | Plate antimicrobial activity test Colletotrichum destructivum, level ([2]; peptide 1 μM) | Plate antimicrobial activity test Colletotrichum destructivum, level ([2]; peptide 10 μM) | Plate antimicrobial activity test Colletotrichum destructivum, level ([2]; peptide 100 μM) | Plate antimicrobial activity test Pyricularia oryzae, level ([3]; peptide 1 μM) | Plate antimicrobial activity test Pyricularia oryzae, level ([3]; peptide 10 μM) | Plate antimicrobial activity test Pyricularia oryzae, level ([3]; peptide 100 μM) | Plate antimicrobial activity test Botrytis cinerea, level ([4]; peptide 1 μM) | Plate antimicrobial activity test Botrytis cinerea, level ([4]; peptide 10 μM) | Plate antimicrobial activity test Botrytis cinerea, level ([4]; peptide 100 μM) | Plate antimicrobial activity test Colletotrichum orbiculare, level ([5]; peptide 1 μM) | Plate antimicrobial activity test Colletotrichum orbiculare, level ([5]; peptide 10 μM) | Plate antimicrobial activity test Colletotrichum orbiculare, level ([5]; peptide 100 μM)
